Assay results as given in patent US20260248918A1, “COMPOSITIONS AND METHODS OF SUPPRESSING AVERSIVENESS OF PHARMACEUTICALS AND INGESTIBLE MATERIALS” (Monell Chemical Senses Center, priority 2019, published 2026).
Entries after “also recorded” stand apart in the source; their conditions may differ. Read-outs that look alike come from different tables or passages of the source.

Tests used:
hTBEC cells = experiment: hTBEC bioassay: antagonism of bitter-drug stimulation of human taste bud cells; format: cell-based; details: for IC50: Homo sapiens; for % maximum inhibition: at 50 μM antagonist
Method: FIGS. 12A and 12B show concentration-response curves or relationships (CRCs) for antagonism of TAF or piperaquine stimulation of hTBEC cells with an optimal concentration of each bitter-tasting medicine in vitro. Each inhibition curve was fitted to the data so as to calculate an IC50 or the concentration that inhibits 50% of the signal. A Hill slope was calculated, along with the % maximal inhibition and the concentration of antagonist, 6-methylflavone, (indicated by the ref ST069348) required to fully block the response in the assay. These metrics were slightly different for antagonism by 6 -methylflavone of TAF versus piperaquine. FIG. 12A is a graph showing the suppression of human taste bud cells (hTBEC) cells with 6-methylflavone added to 300 micromolar TAF stimulated cells. […] FIG. 12B is a graph showing the suppression of hTBEC cells with 6-methylflavone added to 100 micromolar Piperaquine stimulated cells. IC50 is 2.0 μM for 6-methylflavone antagonism of Piperaquine stimulation.
Using a primary hTBEC platform, a high throughput screening (HTS) was conducted with more than 2,000 small molecular weight purified phytochemicals and botanical extracts. The screen identified 40 antagonists that suppressed taste cell activation by target APIs. […] TAS2R1 is responsive to piperaquine and tenofovir. (See FIG. 4)

TAS2R1 = target: T1, TAS2R1 (Homo sapiens, UniProt Q9NYW7); experiment: Blocking of TAS2R1 response to the APIs; format: cell-based; details: data not shown
T1 sequence (Q9NYW7 1-299): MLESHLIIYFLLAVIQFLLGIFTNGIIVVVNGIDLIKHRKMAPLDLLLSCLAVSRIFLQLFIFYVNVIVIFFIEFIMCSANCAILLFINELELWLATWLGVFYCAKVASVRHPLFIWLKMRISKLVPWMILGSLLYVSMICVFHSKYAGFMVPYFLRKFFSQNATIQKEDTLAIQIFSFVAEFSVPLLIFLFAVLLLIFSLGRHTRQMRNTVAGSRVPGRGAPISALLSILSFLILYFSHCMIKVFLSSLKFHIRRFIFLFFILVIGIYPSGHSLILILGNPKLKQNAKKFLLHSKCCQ

[1] = test system: Benzodiazepine receptor (gamma-aminobutyric acid receptor subunit); details: rat cortical membranes; cited from earlier work
[2] = test system: Gamma-aminobutyric acid A receptor alpha; details: in vitro; cited from earlier work
androgen receptor = details: human MDA-kb2 cells; cited from earlier work
glucocorticoid receptor = target: T2, glucocorticoid receptor (Homo sapiens, UniProt P04150); details: human MDA-kb2 cells; cited from earlier work
T2 construct: glucocorticoid receptor in human MDA-kb2 cells; endogenous in cells; host or cells: MDA-kb2
T2 sequence (P04150 1-777): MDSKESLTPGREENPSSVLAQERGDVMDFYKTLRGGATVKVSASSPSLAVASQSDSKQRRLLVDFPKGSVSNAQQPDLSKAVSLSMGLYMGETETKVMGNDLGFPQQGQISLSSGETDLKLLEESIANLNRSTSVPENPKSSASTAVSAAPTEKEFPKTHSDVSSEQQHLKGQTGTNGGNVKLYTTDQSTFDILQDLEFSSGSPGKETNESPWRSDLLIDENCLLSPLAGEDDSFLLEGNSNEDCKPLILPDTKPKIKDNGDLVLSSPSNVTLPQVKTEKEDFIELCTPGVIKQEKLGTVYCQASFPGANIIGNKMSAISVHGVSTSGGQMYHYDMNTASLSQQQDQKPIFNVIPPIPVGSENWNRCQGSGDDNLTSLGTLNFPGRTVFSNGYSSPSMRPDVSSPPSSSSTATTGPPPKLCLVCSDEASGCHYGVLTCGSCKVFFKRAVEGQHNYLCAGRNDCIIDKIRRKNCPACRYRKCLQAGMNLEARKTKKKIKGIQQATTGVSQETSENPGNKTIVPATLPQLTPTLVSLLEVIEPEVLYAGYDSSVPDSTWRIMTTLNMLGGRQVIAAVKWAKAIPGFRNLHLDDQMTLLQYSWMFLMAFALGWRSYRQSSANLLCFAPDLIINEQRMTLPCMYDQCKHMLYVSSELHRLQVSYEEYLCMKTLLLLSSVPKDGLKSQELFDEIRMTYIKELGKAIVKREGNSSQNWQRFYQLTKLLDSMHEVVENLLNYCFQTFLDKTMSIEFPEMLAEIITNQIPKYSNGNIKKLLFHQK

TAS2R39 = target: T3, TAS2R39 (Homo sapiens, UniProt P59534); experiment: Blocking of TAS2R39 activity (HEK/TAS2R39) stimulated by Piperaquine or Tenofovir; format: cell-based; parameters: expressed in transfected cells; host or cells: HEK; details: 0.1 mM blocker
T3 sequence (P59534 1-338): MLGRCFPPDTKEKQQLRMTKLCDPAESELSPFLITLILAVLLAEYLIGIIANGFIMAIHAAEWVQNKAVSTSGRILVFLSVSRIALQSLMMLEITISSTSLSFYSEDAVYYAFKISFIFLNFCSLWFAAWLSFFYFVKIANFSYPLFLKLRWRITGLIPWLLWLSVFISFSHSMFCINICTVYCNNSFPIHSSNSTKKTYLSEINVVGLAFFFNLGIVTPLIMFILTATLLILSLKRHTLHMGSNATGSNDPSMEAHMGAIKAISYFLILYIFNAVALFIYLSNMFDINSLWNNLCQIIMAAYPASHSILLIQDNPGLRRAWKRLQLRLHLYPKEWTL
Method: FIG. 5A is a bar graph showing that the blocker 6-methylflavone (indicated by the arrow number 2) blocks the activity of taste receptor TAS2R39 to Piperaquine. Other blockers are unidentified compounds identified by the numbers following the concentrations under the X axis. Five candidates from the HTS screen blocked the activity of TAS2R39 to Piperaquine.
FIG. 5B is a graph plotting the activity of taste receptor HEK/TAS2R39 in the presence of 0.5 mM Piperaquine (bold black line); the combination of 0.5 mM Piperaquine and 0.1 mM of 6-methylflavone (light gray line), and a control with 0.1 mM of the blocker 6-methylflavone (dotted line).
Other blockers are identified by the numbers following the concentrations under the X axis.
FIG. 7B is a graph plotting the activity of taste receptor TAS2R39 in the presence of 1 mM Tenofovir (bold black line); the combination of 1 mM Tenovir and 0.1 mM of 6-methylflavone (light gray line), and a control with 0.1 mM of the blocker 6-methylflavone (dotted line).

Cc1ccc2oc(-c3ccccc3)cc(=O)c2c1 [6-methylflavone]
IC50 (hTBEC cells; hTBEC cells stimulated with 100 micromolar Piperaquine, FIG. 12B, read-out: IC50 for antagonism of Piperaquine stimulation): 2 µM | IC50 (hTBEC cells; hTBEC cells stimulated with 300 micromolar TAF, FIG. 12A, read-out: IC50 for antagonism of TAF stimulation): 7.7 µM | % maximum inhibition (hTBEC cells; 100 micromolar Piperaquine stimulated hTBEC cells, FIG. 12B): > 95% | % maximum inhibition (hTBEC cells; 300 micromolar TAF stimulated hTBEC cells, FIG. 12A): > 95% | Hill slope (hTBEC cells; hTBEC cells stimulated with 100 micromolar Piperaquine, FIG. 12B): 1.992 | Hill slope (hTBEC cells; hTBEC cells stimulated with 300 micromolar TAF, FIG. 12A): 2.18 | Blocking the stimulation of hTBEC cells by bitter tasting drugs (hTBEC cells; stimulated by TAF, racemic praziquantel and piperaquine): quite potent and effective | Inhibition of TAS2R1 (TAS2R1; FIG. 5A legend (Piperaquine)): did not inhibit | Inhibition of the response of TAS2R1 to TAF (TAS2R1; FIG. 7B legend): did not inhibit | In vitro affinity against Benzodiazepine receptor binding [1]: active | Inhibition of [3H]-Ro-15-1788 binding [2]: has the ability to inhibit | Agonist activity at androgen receptor, stimulation of luciferase activity (androgen receptor): agonist activity | Antagonist activity at glucocorticoid receptor (glucocorticoid receptor): antagonist activity | Inhibition of TAS2R39 activity to Piperaquine (TAS2R39; 0.5 mM Piperaquine, FIG. 5A/5B): powerful antagonist; also recorded: strong inhibition | Inhibition of TAS2R39 activity in response to Tenofovir (TAF) (TAS2R39; 1 mM Tenofovir, FIG. 7A/7B): powerful antagonist; also recorded: completely inhibited
